Here are results for 5 compounds from US20120142027A1, “Compositions and Methods for Modulating the Immune Response and Identifying Immunomodulators” (WHITEHEAD INSTITUTE FOR BIOMEDICAL RESEARCH, priority 2007, published 2012).

Test [1] relates to RAW macrophages stably expressing wild type UNC93B-HA. The test is described as follows: Endo H sensitivity of UNC93B-HA and Class I MHC in RAW macrophages. Type of test: cell-based, mouse. The following applies: Brefeldin A 10 μg/ml, present throughout pulse, chase and CpG stimulation. The method, then: FIG. 14. The interaction between UNC93B and TLRs maintains in dendritic cells stimulated with TLR agonists. (a) BM-DCs were metabolically labeled with ^35S-methionine/cysteine and stimulated with TLR ligands for 1 h (LPS: 1 μg/ml, poly (I:C): 50 μg/ml, Imiquimod: 2.5 CpG DNA: 2.5 μM). Endogenous UNC93B and TLRs were immunoprecipitated with an anti-UNC93B antibody, digested with endoglycosidase H (Endo H), subjected to 10% SDS-PAGE and visualized by fluorography. TLRs coimmunoprecipitated with UNC93B are denoted by open triangles. Interaction between TLRs and UNC93B was maintained even after TLR stimulation with various agonists. […] NRS; normal rabbit serum (b) RAW macrophages stably expressing wild type UNC93B-HA were exposed to Brefeldin A (10 μg/ml) for 2 h, metabolically labeled with ^35S-methionine/cysteine for 30 min (pulse), incubated in normal medium for 2 h (chase) followed by 2 h stimulation with CpG (+CpG) or were left unstimulated (−CpG). All incubations (pulse, chase, CpG stimulation) were done in the continuous presence of Brefeldin A. As a control, cells were not treated with Brefeldin A (−BA). Cells were lysed in RIPA buffer and UNC93B-HA and Class I MHC products were recovered from cell lysates by immunoprecipitation with an anti-HA (upper panel) or Class I antibody (lower panel), respectively. […]

For test [2], the system named is TLR signaling. The following applies: pretreatment of wild type cells; cited from earlier work.
For test [3], the system named is BM-DCs. Description: TNF production in BM-DCs stimulated with TLR agonists (intracellular TNF, flow cytometry). It is filed as cell-based, mouse. The following applies: BM-DCs from 3d (UNC93B H412R) mice; 100 nM imiquimod or 1 μM CpG, 4 h, with 10 μg/ml brefeldin A. The method, then: TNF assay. Five days old BM-DCs expressing either wild type or mutant UNC93B-GFP were stimulated with 1 μg/ml LPS, 100 nM imiquimod or 1 μM CpG for 4 hours in the presence of 10 μg/ml brefeldin A. The cells were fixed with 4% formaldehyde for 10 min at RT and permeabilized with 0.5% saponin in FACS buffer (PBS with 2% BSA and 0.05% sodium azide) for 10 min. After blocking with anti-CD16 antibody (clone 2.4G2) for 30 min, cells were stained with PE-conjugated anti-CD11c (clone HL3) and Alexa Fluor 647-conjugated anti-TNF (clone MP6-XT22) antibodies for 30 min. Fluorescence intensity was measured with LSR I flow cytometer (BD biosciences). Data were collected with CellQuest (BD biosciences) and analyzed with FlowJo (TriStar).
In general terms: Flow cytometry measures light scatter and fluorescence of single cells or particles in a stream.

The subject of test [4] is BM-DCs. Description: Surface MHC class II level on BM-DCs by flow cytometry. Type of test: cell-based, mouse. The following applies: B6 or 3d BM-DCs; 1 μg/ml LPS, 1 μM CpG or 1 μM imiquimod, 16 h.
Description: (b) BM-DCs from B6 and 3d mice were fixed, permeablized and stained for MHC class II (green) and Lamp1 (red). […] White dashed lines mark the cell boundary. […] (d) B6 or 3d BM-DCs were stimulated with 1 μg/ml LPS or 1 μM CpG for 16 h, fixed, permeabilized and stained for MHC class II and Lamp1. […] Scale bars; 10 μm
In test [5] the test system is UNC93B/TLR interaction in A20 B cells. The test is described as follows: Coimmunoprecipitation of TLRs with UNC93B-HA after stimulation with TLR agonists. It is filed as cell-based, mouse. The following applies: imiquimod 10 μM, gardiquimod 1 μM, CpG DNA 1 μM, 1 h. The method, then: Stimulation with TLR agonists. A20 B cells either not transduced or stably transduced with UNC93B-HA WT or H412R were metabolically labeled with ^35S-methionine/cysteine for 4 h (pulse). TLR agonists were added to the cells for the final hour of the pulse at the following concentrations: imiquimod: 10 μM, gardiquimod: 1 μM, CpG DNA: 1 μM.
Pulse-chase, immunoprecipitation and Endo H/F assay. In brief, cells were starved for methionine and cysteine in Met/Cys-free DMEM (starvation medium) for 30 min, pulsed for different time periods (see figure legends) with ^35S-labeled methionine/cysteine (Perkin Elmer) in starvation medium supplemented with dialyzed IFS, and chased with an excess of non-radioactive amino acids in regular DMEM for various time periods (see figure legends). Cells were lysed in either of the following lysis buffers supplemented with the complete protease inhibitors (Roche) as indicated in the figure legends: RIPA (20 mM Tris-HCl, pH 7.4, 1 mM EDTA, 100 mM NaCl, 1% Triton X-100, 0.5% sodium deoxycholate, 0.1% SDS), or buffer containing 50 mM Tris-HCl, pH 7.4, 150 mM NaCl, 5 mM EDTA with either 1% NP-40 or 1% digitonin as detergent. Lysates were equalized for incorporation of radioactive material with ^35S counts in the trichloroacetic acid precipitate and immunoprecipitated with the indicated antibodies. […]

Test [6] addresses T1, TLR7 (Mus musculus, UniProt P58681).
T1 construct: expressed in transfected cells; host or cells: bone marrow-derived dendritic cells from B6 or 3d mice, retroviral transduction (pMXrmv5-TLR7-YFP)
T1 sequence (P58681 27-1050): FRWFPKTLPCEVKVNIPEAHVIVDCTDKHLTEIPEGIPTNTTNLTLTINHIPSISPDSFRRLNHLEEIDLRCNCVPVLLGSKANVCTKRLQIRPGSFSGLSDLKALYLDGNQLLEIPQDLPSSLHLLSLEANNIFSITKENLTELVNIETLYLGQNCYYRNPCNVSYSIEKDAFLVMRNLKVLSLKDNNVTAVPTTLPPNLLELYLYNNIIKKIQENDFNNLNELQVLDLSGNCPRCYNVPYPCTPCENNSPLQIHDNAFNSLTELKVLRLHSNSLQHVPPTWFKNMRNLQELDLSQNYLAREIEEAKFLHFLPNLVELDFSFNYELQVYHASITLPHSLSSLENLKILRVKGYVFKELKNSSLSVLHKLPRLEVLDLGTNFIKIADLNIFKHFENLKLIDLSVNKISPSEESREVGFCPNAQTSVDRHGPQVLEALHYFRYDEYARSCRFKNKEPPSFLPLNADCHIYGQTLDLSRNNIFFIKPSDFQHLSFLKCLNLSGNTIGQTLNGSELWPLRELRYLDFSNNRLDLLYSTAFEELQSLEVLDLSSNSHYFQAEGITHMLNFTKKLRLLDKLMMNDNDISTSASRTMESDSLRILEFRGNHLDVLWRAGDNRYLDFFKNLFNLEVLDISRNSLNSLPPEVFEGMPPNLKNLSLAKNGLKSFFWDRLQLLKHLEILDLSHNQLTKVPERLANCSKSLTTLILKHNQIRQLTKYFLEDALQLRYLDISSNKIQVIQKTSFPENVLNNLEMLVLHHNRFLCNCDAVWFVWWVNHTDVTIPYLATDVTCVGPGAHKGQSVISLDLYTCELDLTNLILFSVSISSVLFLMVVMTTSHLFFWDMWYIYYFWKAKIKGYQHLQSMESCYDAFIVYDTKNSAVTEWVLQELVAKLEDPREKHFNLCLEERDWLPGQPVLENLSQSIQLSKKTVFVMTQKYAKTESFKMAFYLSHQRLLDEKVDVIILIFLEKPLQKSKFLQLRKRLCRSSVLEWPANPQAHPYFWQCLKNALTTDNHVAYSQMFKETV
Description: Live cell imaging of TLR7-YFP localization in BM-DCs. Type of test: cell-based. The following applies: wild type (B6) BM-DCs, 1 μM imiquimod, 2 h.
Description: Image acquisition and data analysis. For live cell imaging, cells were grown in 8 well-chambered coverglasses (LAB-TEK). During imaging, cells were maintained in phenol red-free DMEM supplemented with 25 mM Hepes (pH 7.4) at 37° C. with 5% supplemental CO2 in room air using a Solent scientific chamber. Images were acquired using a spinning disk confocal microscope equipped with a 3 watt water-cooled 5 line laser (Prairie Technologies), a Nikon TE2000-U inverted microscope, acousto-optic tunable filters (AOTF), a Yokagawa QLC-100 spinning disk confocal head, a Prior x,y stage controller, a Piezo z stage and Hamamatsu Orca ER and EM CCD cameras. All images were taken with a Nikon 100X 1.4NA DIC lens. Metamorph (Molecular Devices) was used for image acquisition and figures were constructed using Adobe Photoshop and Illustrator. Quantitative colocalization analyses were performed using applications ‘Measure Colocalization’ and ‘Correlation Plot’ in the MetaMorph software (Molecular Devices).

`C[C@H]1CCC/C=C/[C@@H]2C[C@H](O)C[C@H]2[C@H](O)/C=C/C(=O)O1` [Brefeldin A]: the “Endo H resistance of Class I MHC and UNC93B” value in test [1] was “both Class I MHC and UNC93B acquire partially EndoH resistant hybrid type oligosaccharides”.

For the compound `CCN(CC)CCCC(C)Nc1ccnc2cc(Cl)ccc12` (centres unmarked) [chloroquine], the “effect on TLR signaling compared with the defects of 3d cells” value in test [2] was “mimicked”.

For `CC(C)Cn1cnc2c(N)nc3ccccc3c21` [imiquimod, Imiquimod], in test [3], the TNF production result is listed as “failed to produce TNF”. Besides, the “surface level of MHC class II” value in test [4] is recorded as “failed to increase the MHC class II level in 3d cells”. Further, in test [5], the “levels of coimmunoprecipitated TLR polypeptides after TLR activation versus unstimulated cells” value is recorded as “No significant changes”. Further, in test [6], the “localization of TLR7 after stimulation” value is given as “trafficking of TLR7 from the ER to endolysosomes was also observed”.

Take `CCNCc1nc2c(N)nc3ccccc3c2n1CC(C)(C)O` [gardiquimod]: in test [5], the “levels of coimmunoprecipitated TLR polypeptides after TLR activation versus unstimulated cells” value is given as “No significant changes”.

Turning to `CO/C1=C\C(C)=C\[C@@H](C)[C@@H](O)[C@@H](C)C/C(C)=C/C=C/[C@H](OC)[C@@H]([C@@H](C)[C@@H](O)[C@H](C)[C@@]2(O)C[C@@H](O)[C@H](C)[C@@H](C(C)C)O2)OC1=O` [bafilomycin], in test [2], the “effect on TLR signaling compared with the defects of 3d cells” value is “mimicked”.
